Converted amounts (≈) assume the structure as drawn.
What was measured:
Mus musculus [1] = experiment: Area under curve measured as conc vs time after intravenous administration to mice.; assay type: ADME, organism-based; set-up: unit not given here; conditions: in vivo
Staphylococcus aureus = experiment: In vitro antibacterial activity against Staphylococcus aureus A9537; assay type: functional
Klebsiella pneumoniae = experiment: In vitro antibacterial activity against Klebsiella pneumoniae A9664; assay type: functional
Mus musculus [2] = experiment: In vivo efficacy on systemic infections caused by Escherichia coli A15119 in mice after peroral administration; assay type: functional; conditions: po, read-out: PD50
[3] = Peak concentration in blood after intravenous administration to mice; assay type: ADME, organism-based; set-up: route intravenous; conditions: mouse
Serratia marcescens = experiment: In vitro antibacterial activity against Serratia marcescens A20019; assay type: functional
Morganella morganii = experiment: In vitro antibacterial activity against Morganella morganii A15153; assay type: functional
Mus musculus [4] = experiment: In vivo efficacy on systemic infections caused by Pseudomonas aeruginosa A9843 in mice after peroral administration; assay type: functional; conditions: po, read-out: PD50
Proteus mirabilis = experiment: In vitro antibacterial activity against Proteus mirabilis A9900; assay type: functional
[5] = Acute toxicity after intravenous administration to mice; assay type: organism-based; conditions: mouse, in vivo
Escherichia coli = experiment: In vitro antibacterial activity against Escherichia coli A15119; assay type: functional
Pseudomonas aeruginosa = experiment: In vitro antibacterial activity against Pseudomonas aeruginosa A9843; assay type: functional
[6] = Acute toxicity after peroral administration to mice; assay type: organism-based; conditions: mouse, in vivo, po
[7] = percent urinary recovery in 24 hr after intravenous administration to mice; assay type: ADME, organism-based; conditions: mouse, urine, read-out: UR
[8] = Peak concentration in blood after peroral administration to mice; assay type: ADME, organism-based; set-up: route oral; conditions: mouse, po
Mus musculus [9] = experiment: Area under curve measured as conc vs time after peroral administration to mice.; assay type: ADME, organism-based; set-up: unit not given here; conditions: in vivo, po
Enterobacter cloacae = experiment: In vitro antibacterial activity against Enterobacter cloacae A9656; assay type: functional
[10] = Percent urinary recovery in 24 hr after peroral administration to mice; assay type: ADME, organism-based; conditions: mouse, urine, po; read-out: UR
Mus musculus [11] = experiment: In vivo efficacy on systemic infections caused by Escherichia coli A15119 in mice after intramuscular administration; assay type: functional; conditions: im, read-out: PD50
[12] = Plasma half-life after intravenous administration to mice; assay type: ADME, organism-based; conditions: mouse
[13] = Plasma half-life after peroral administration to mice; assay type: ADME, organism-based; conditions: mouse, po
[14] = Partition coefficient (logD); assay type: physicochemical; conditions: octanol/water
[15] = Solubility (water, 22C, pH 7.2); assay type: physicochemical; conditions: read-out: S
Mus musculus [16] = experiment: In vivo efficacy on systemic infections caused by Pseudomonas aeruginosa A9843 in mice after intramuscular administration; assay type: functional; conditions: im, read-out: PD50
Enterococcus faecalis = experiment: In vitro antibacterial activity against Enterococcus faecalis A9809; assay type: functional
Bacteroides fragilis = experiment: In vitro antibacterial activity against Bacteroides fragilis A-22,862; assay type: functional
Streptococcus pneumoniae = experiment: In vitro antibacterial activity against Streptococcus pneumoniae A9585.; assay type: functional
Mus musculus [17] = experiment: In vivo efficacy on systemic infections caused by Staphylococcus aureus A15090 in mice after peroral administration; assay type: functional; conditions: po, read-out: PD50
Mus musculus [18] = experiment: In vivo efficacy on systemic infections caused by Staphylococcus aureus A15090 in mice after intramuscular administration; assay type: functional; conditions: im, read-out: PD50

Structure (SMILES)	MIC (Staphylococcus aureus) [µg/mL]	MIC (Klebsiella pneumoniae) [µg/mL]	MIC (Serratia marcescens) [µg/mL]	MIC (Morganella morganii) [µg/mL]	MIC (Proteus mirabilis) [µg/mL]	MIC (Escherichia coli) [µg/mL]	MIC (Pseudomonas aeruginosa) [µg/mL]	MIC (Enterobacter cloacae) [µg/mL]	logD [14]	solubility [15] [µg/mL]	MIC (Enterococcus faecalis) [µg/mL]	MIC (Bacteroides fragilis) [µg/mL]	MIC (Streptococcus pneumoniae) [µg/mL]	AUC (Mus musculus [1])	Cmax [3] [ng/mL]	ED50 (Mus musculus [4]) [mg/kg]	dose excreted at 24 h [7] [%]	Cmax [8] [ng/mL]	AUC (Mus musculus [9])	dose excreted at 24 h [10] [%]	also measured
CN1C[C@H]2C[C@@H]1CN2c1nc2c(cc1F)c(=O)c(C(=O)O)cn2C(C)(C)C	0.13 (≈ 0.347 µM)	0.13 (≈ 0.347 µM)	0.25 (≈ 0.668 µM)	0.5 (≈ 1.34 µM)	1 (≈ 2.67 µM)	0.25 (≈ 0.668 µM)	2 (≈ 5.34 µM)	0.13 (≈ 0.347 µM)	0.21	310 (≈ 828 µM)	–	–	–	14	14000	10.2	15	13000	18	3	ED50 (Mus musculus [2]): 2.4 mg/kg; LD50 [5]: 188 mg/kg; LD50 [6]: 1000 mg/kg; ED50 (Mus musculus [11]): 1 mg/kg; half-life [12]: 1.6 h; half-life [13]: 1.33 h; ED50 (Mus musculus [16]): 4.7 mg/kg
C[C@H]1[C@H]2C[C@H](CN2)N1c1nc2c(cc1F)c(=O)c(C(=O)O)cn2C(C)(C)C.Cl	0.06	0.5	0.25	1	1	0.03	2	0.13	-0.22	1330	1	8	1	22	22000	22	16	9000	17	16	ED50 (Mus musculus [17]): 5.4 mg/kg; half-life [12]: 1.22 h; half-life [13]: 1.08 h; ED50 (Mus musculus [16]): 12.5 mg/kg
C[C@@H]1[C@H]2C[C@H](CN2)N1c1nc2c(cc1F)c(=O)c(C(=O)O)cn2C(C)(C)C.Cl	0.03	0.25	0.25	0.5	0.5	0.016	1	0.06	0.17	11800	0.5	1	0.13	10	13000	22	2	5000	5	1	ED50 (Mus musculus [17]): 13.1 mg/kg; ED50 (Mus musculus [2]): 12.5 mg/kg; ED50 (Mus musculus [18]): 7.5 mg/kg; ED50 (Mus musculus [11]): 2.4 mg/kg; half-life [12]: 0.733 h; half-life [13]: 0.8 h; ED50 (Mus musculus [16]): 12.5 mg/kg

Now from value to molecule, other results behind:

MIC (Staphylococcus aureus) [µg/mL]	MIC (Klebsiella pneumoniae) [µg/mL]	MIC (Serratia marcescens) [µg/mL]	MIC (Morganella morganii) [µg/mL]	MIC (Proteus mirabilis) [µg/mL]	MIC (Escherichia coli) [µg/mL]	MIC (Pseudomonas aeruginosa) [µg/mL]	MIC (Enterobacter cloacae) [µg/mL]	logD [14]	solubility [15] [µg/mL]	MIC (Enterococcus faecalis) [µg/mL]	MIC (Bacteroides fragilis) [µg/mL]	MIC (Streptococcus pneumoniae) [µg/mL]	Structure (SMILES)	AUC (Mus musculus [1])	Cmax [3] [ng/mL]	ED50 (Mus musculus [4]) [mg/kg]	dose excreted at 24 h [7] [%]	Cmax [8] [ng/mL]	AUC (Mus musculus [9])	dose excreted at 24 h [10] [%]	also measured
0.03	0.03	0.13	0.25	0.25	0.03	1	0.016	0.02	67	1	16	0.5	CC(C)(C)n1cc(C(=O)O)c(=O)c2cc(F)c(N3C[C@@]4(C)C[C@@H]3CN4)nc21.Cl	–	–	–	–	–	–	–	–
0.016	0.016	0.13	0.13	0.13	0.016	0.25	0.016	0.73	70	0.25	4	0.13	Cc1c(F)c(N2[C@H]3CN[C@H](C3)[C@@H]2C)nc2c1c(=O)c(C(=O)O)cn2C1CC1.Cl	–	–	–	–	–	–	–	–
1	0.5	1	2	2	0.25	4	0.25	-0.37	6	16	64	2	CC(C)(C)n1cc(C(=O)O)c(=O)c2cc(F)c(N3C[C@H]4C[C@]3(C)CN4)nc21.Cl	–	–	–	–	–	–	–	–
0.016	0.13	0.5	0.5	0.5	0.03	2	0.03	1.3	250	0.5	16	0.5	Cc1c(F)c(N2C[C@H]3C[C@@H]2[C@H](C)N3)nc2c1c(=O)c(C(=O)O)cn2C(C)(C)C.Cl	–	–	–	–	–	–	–	–

— ChEMBL document CHEMBL1125506, “Fluoronaphthyridines as antibacterial agents. 6. Synthesis and structure-activity relationships of new chiral 7-(1-, 3-, 4-, and 6-methyl-2,5-diazabicyclo[2.2.1]heptan-2-yl)naphthyridine analogues of 7-[(1R,4R)-2,5- diazabicyclo[2.2.1]heptan-2-yl]-1-(1,1-dimethylethyl)-6-fluoro-1,4-dihy …” (J Med Chem, 1992)
